# Experimental data published in patent US8507674B2, “Quorum sensing inhibitor” (The University of Tokyo, priority 2007, dated 2013).
# Assays:
# Burkholderia glumae [1] = assay: Test Example 9: amount of toxoflavin produced in culture solution, with comparative compound; assay type: cell-based; details: 0, 20, 40, 60, 80 or 100 μM, shake culturing 20 hours, FIG. 6
# Procedure: Burkholderia glumae was inoculated into an LB culture medium (produced by BD (Difco LB Broth: containing tryptone (10.0 g), yeast extract (5.0 g), and sodium chloride (10.0 g)), and cultured at 37° C. overnight. The thus-obtained culture solution was subjected to bacterial collection using a centrifuge, and washed with an LB culture medium twice using a fresh LB culture medium each time. To the bacterial cell a fresh LB culture medium was added, and then Compound (1) produced in Production Example 1 was added thereto in such a manner that its final concentration became a predetermined value (i.e., 0, 20, 40, 60, 80 or 100 μM), followed by shake culturing for 20 hours. The amount of toxoflavin produced by the bacterial cell in the culture solution was obtained by the following procedure.
# Each culture solution was filtered by a 0.22-μm membrane filter, and 1 mL of the filtrate was isolated. One mL of chloroform was added to the filtrate, followed by extraction. The thus-obtained chloroform layer was concentrated under reduced pressure, and an 80% (V/V) an aqueous methanol solution was added to and dissolved in the residue. The absorbance (at 260 nm) of the solution was measured, and the toxin doses were calculated from the calibration curve, which was obtained using chemically synthesized standard toxin. […]
# Burkholderia glumae [2] = assay: Test Example 2: number of microorganisms in culture solution (colony count); assay type: cell-based; details: final concentration 100 μM, after 36 hours of cultivation, FIG. 1
# Procedure: Burkholderia glumae was inoculated into an LB culture medium, and cultured at 37° C. overnight. The thus-obtained culture solution was subjected to bacterial collection using a centrifuge, washed with an LB culture medium twice using a fresh LB culture medium each time. To the bacterial cell a fresh LB culture medium was added to prepare a culture suspension of about 3.0×10^5 cfu/mL. Thereafter, each of Compound (1), Compound (2), Compound (3), Compound (4), Compound (5), Compound (8) and Compound (9) produced in Production Examples 1-5 were added to the culture suspension in such a manner that their final concentration became 100 μM, followed by shake culturing for 36 hours. The number of microorganisms in the culture solution 24 hours and 36 hours after the initiation of the culturing were obtained by the following procedure. Specifically, a portion of the culture solution was removed and diluted 1,000-fold, and then seeded to an LB culture medium agar plate. The number of colonies were counted to obtain the number of microorganisms.
# The same experiments were conducted, as comparative tests, using Comparative Compounds (1)-(3), which were produced in Reference Examples 1-3 and the below-explained compound (Comparative Compound (4)), which is disclosed in Patent Document 1, thereby obtaining the number of microorganisms.
# [3] = system: (gfp expression PAO1-strain); assay: Test Example 7: biofilm formation inhibition in flow cell system; assay type: cell-based, Burkholderia aeruginosa; details: test liquid at 200 μL per minute, observed up to 84 hours by confocal microscope, FIG. 5
# Procedure: Using the flow cell system shown in FIG. 4, the […] aeruginosa biofilm formation inhibition effect of Compound (2), which was produced using Production Example 2, was evaluated.
# A culture medium bottle (1), peristaltic pump (2), glass cell (4) and waste fluid bottle (5) are connected via a silicon tube (6) so that a culture medium (9) is supplied to the glass cell (4) from the culture medium bottle (1) using the peristaltic pump (2). The system includes an air removal section (3) between the peristaltic pump (2) and a turncock (7a) for removing entrained air. All components in the flow cell system were sterilized using gamma rays or an autoclave.
# As described later, the inhibitory effect against biofilm formation of each of the compounds can be examined in the following manner. Bacteria are cultured in a glass cell (4) to grow a biofilm on the inner wall of the cell, and a test liquid containing one of the compounds is applied to the biofilm. Then the state of the biofilm is observed to evaluate the inhibitory effect against biofilm formation of the compound using a spectral confocal and multiphoton microscope (Leica TCS SP2: produced by Leica). […]
# [4] = system: Porphyromonas gingivalis 381-strain; assay: Test Example 8: biofilm formation inhibition on hydroxyapatite disks in flow cell system; assay type: cell-based
# Procedure: Using the flow cell system shown in FIG. 4, the Porphyromonas gingivalis biofilm formation inhibition effect of Compound (2), which was produced in Production Example 2, was evaluated.
# Bacteria: Periodontitis pathogenic bacteria Porphyromonas gingivalis 381-strain (clinical strain) were used.
# Culture Medium: A GAM culture medium containing […] and 1 μg/L menadione was used.
# Bacterial Suspension The 381-strain was inoculated into the GAM culture medium, and cultivated until the stationary phase (OD550=1.8). Then the culture medium was diluted 20-fold by the GAM culture medium described above.
# Test liquid: The test liquid was prepared by dissolving Compound (2) into DMSO to obtain 100 μM of DMSO solution of Compound (2). […]
# After the cultivation, the HA disks were dipped in 300 μL of sterile distilled water, and treated by supersonic waves for 30 minutes at 4° C. […] Then, the turbidity of 10 μL of the suspension liquid was measured with an absorptiometer (C07500 calorimeter, produced by Funakoshi) (measurement wavelength=550 nm).
# A mean OD was found based on the resulting OD values, excluding the minimum and maximum values. Likewise, the turbidity of the control test liquid was obtained and determined as a control OD value, and then the control mean OD value was found in the same manner. […]
smiles,measurement,setting,value
"CCCCCCCCCC(=O)CC(=O)Nc1ccccc1O [Comparative Compound (5), reference compound]",toxin doses produced by bacteria (toxoflavin),Burkholderia glumae [1],almost no change
"CCCCc1cc(=O)n2cccc(O)c2n1 [Compound (9), 9-hydroxy-2-n-butyl-4H-pyrid[1,2-a]pyrimidin-4-one]",control activity against Burkholderia glumae (number of microorganisms),Burkholderia glumae [2],can kill almost all Burkholderia glumae
"CCc1cc(=O)n2cccc(O)c2n1 [Compound (8), 9-hydroxy-2-ethyl-4H-pyrid[1,2-a]pyrimidin-4-one]",control activity against Burkholderia glumae (number of microorganisms),Burkholderia glumae [2],can kill almost all Burkholderia glumae
"CCCCCc1cc(=O)n2cccc(O)c2n1 [Compound (2), 9-hydroxy-2-n-pentyl-4H-pyrid[1,2-a]pyrimidin-4-one]",biofilm formation on inner wall of glass cell,[3],biofilm formation was not observed
same,Mean OD Value,"[4]; 100 μM, 14 days circulation, turbidity of biofilm suspension at 550 nm",0.041
same,inhibition at 100 µM,"[4]; Porphyromonas gingivalis, 381STRAIN, 336 h, read-out: Inhibition Rate (%) (biofilm formation inhibition rate)",56.4%
